The source of these data is ChEMBL document CHEMBL1144583, “Specificities of acetoxy derivatives of coumarins, biscoumarins, chromones, flavones, isoflavones and xanthones for acetoxy drug: protein transacetylase” (2007).

The species named for experiment [1] is Rattus norvegicus. Nature of the experiment: Effect on TAase activity assessed as activation of liver microsomal NADPH cytochrome P450 at 5 uM.
The species named for experiment [2] is Rattus norvegicus. The experiment can be described thus: Inhibition of liver microsomal EROD at 25 uM. On the technique in general: Microsomes from liver hold many membrane-bound enzymes, among them those of drug oxidation.
The species named for experiment [3] is Rattus norvegicus. The experiment can be described thus: Effect on TAase activity assessed as inhibition of GST in liver microsome at 50 uM. It counts as microsomes.
The subject of the next experiment is Bone marrow cell. Nature of the experiment: Inhibition of micronuclei formation in benzene-induced in Wistar Albino rat bone marrow cells at 300 mg/ kg, ip after 1 hr. It counts as functional. The following applies: route intraperitoneal.

`CC(=O)Oc1ccc2c(=O)c(-c3ccccc3)coc2c1OC(C)=O`: the Activity in the experiment filed under Rattus norvegicus [1] was found to be 14.5%. Also, the inhibition (as a rule, the relative decrease from the control value, in per cent) was determined as 32.4% in the experiment listed under Rattus norvegicus [2] and 6.89% in the experiment listed under Rattus norvegicus [3].

As for `CC(=O)Oc1ccc2c(C)cc(=O)oc2c1OC(C)=O`, the Activity in the experiment filed under Rattus norvegicus [1] came out at 25.8%. Further, the figures for the inhibition in the experiment listed under Rattus norvegicus [2] and in the experiment listed under Rattus norvegicus [3] were 58.4% and 15.2%, respectively. In the experiment with Bone marrow cell, the inhibition in vivo (in general, the share of the control response that was lost under treatment) at 300 mg/kg is 65%.

Regarding `CC(=O)Oc1ccc2c(c1)OC(=O)CC2c1ccccc1` (stereo unspecified), in the experiment filed under Rattus norvegicus [1], the Activity was found to be 6.77%. The inhibition in the experiment listed under Rattus norvegicus [3] stood at 3.31%.

As to `CC(=O)Oc1ccc2c(=O)c(C(C)=O)c(C)oc2c1`, the Activity in the experiment filed under Rattus norvegicus [1] is 15.1%. The inhibition in the experiment filed under Rattus norvegicus [2] was found to be 31.5%; in the experiment filed under Rattus norvegicus [3], 6.03%.

For the molecule `CC(=O)Oc1ccc2c(C(C/C=C/C#CC(C)(C)C)S(=O)(=O)c3ccccc3)cc(=O)oc2c1OC(C)=O` (stereo unspecified), the Activity in the experiment filed under Rattus norvegicus [1] came out at 15.9%. Further, the inhibition in the experiment listed under Rattus norvegicus [3] is 10.4%.

`CC(=O)Oc1ccc2c(=O)c(-c3ccccc3)c(C)oc2c1`: the Activity in the experiment filed under Rattus norvegicus [1] was found to be 7.1%. The inhibition in the experiment listed under Rattus norvegicus [2] came to 16.1%; in the experiment filed under Rattus norvegicus [3] it was 3.1%.

In the case of `CC(=O)Oc1ccc(OC(C)=O)c2c(=O)c3ccccc3oc12`, in the experiment filed under Rattus norvegicus [1], the Activity came out at 21.7%. Besides, the results for the inhibition in the experiment filed under Rattus norvegicus [2] and in the experiment listed under Rattus norvegicus [3] were 41.9% and 12.7%, respectively.

As for `CCCCCCC(c1cc(=O)oc2cc(OC(C)=O)ccc12)S(=O)(=O)c1ccccc1` (stereo unspecified), the Activity in the experiment listed under Rattus norvegicus [1] was found to be 7.17%. In addition, in the experiment listed under Rattus norvegicus [3], the inhibition was 3.96%.

On to `CC(=O)Oc1ccc2c(=O)cc(-c3ccccc3)oc2c1`, for which, in the experiment listed under Rattus norvegicus [1], the Activity worked out at 6.9%. Also, the results for the inhibition in the experiment listed under Rattus norvegicus [2] and in the experiment filed under Rattus norvegicus [3] were 16.4% and 3.6%, respectively.

On to `CC(=O)Oc1cc(C(C)=O)c2c(C)cc(=O)oc2c1`, for which, in the experiment filed under Rattus norvegicus [1], the Activity came to 15.6%. The inhibition in the experiment listed under Rattus norvegicus [3] is 7.65%.

`CC(=O)Oc1ccc2c(OC(C)=O)c(Cc3c(OC(C)=O)c4ccc(OC(C)=O)c(OC(C)=O)c4oc3=O)c(=O)oc2c1OC(C)=O`: in the experiment listed under Rattus norvegicus [1], the Activity stood at 17.2%. In addition, the inhibition was determined as 39.3% in the experiment filed under Rattus norvegicus [2] and 10.1% in the experiment filed under Rattus norvegicus [3]. The molecule further showed an inhibition in vivo at 300 mg/kg in the experiment on Bone marrow cell of 37.9%.

Take `CC(=O)Oc1ccc2c(=O)c(C(C)=O)c(C)oc2c1OC(C)=O`: in the experiment listed under Rattus norvegicus [1], the Activity was 27.6%. Further, the inhibition in the experiment filed under Rattus norvegicus [3] turned out to be 15.3%.

`CC(=O)Oc1cc2c(=O)oc3c(OC(C)=O)c(OC(C)=O)cc4c(=O)oc(c1OC(C)=O)c2c34` [ELLAGIC ACID TETRAACETATE]: the Activity in the experiment listed under Rattus norvegicus [1] came to 16.1%. Also, in the experiment filed under Rattus norvegicus [3], the inhibition is 10.1%. Also, the inhibition in vivo at 300 mg/kg in the experiment with Bone marrow cell was determined as 39.6%.

Take `CC(=O)Oc1ccc2c(C(C/C=C/C#CC(C)(C)C)S(=O)(=O)c3ccccc3)cc(=O)oc2c1` (stereo unspecified): the Activity in the experiment listed under Rattus norvegicus [1] was 7.6%. In addition, the inhibition in the experiment listed under Rattus norvegicus [3] is 4.01%.

As to `CC(=O)Oc1cccc2oc3ccccc3c(=O)c12`, the Activity in the experiment filed under Rattus norvegicus [1] is 5.06%. Moreover, the inhibition in the experiment listed under Rattus norvegicus [3] was determined as 3.43%.

`CC(=O)Oc1ccc2c(C)cc(=O)oc2c1`: the Activity in the experiment listed under Rattus norvegicus [1] was 14.5%. Besides, the inhibition in the experiment filed under Rattus norvegicus [2] amounted to 30.8%; in the experiment filed under Rattus norvegicus [3] it was 7.1%. This molecule also came in with an inhibition in vivo at 300 mg/kg with Bone marrow cell of 44.6%.

For `CC(=O)Oc1cc(OC(C)=O)c2c(=O)c(C(C)=O)c(C)oc2c1`, the Activity in the experiment filed under Rattus norvegicus [1] is 16.7%. Besides, in the experiment filed under Rattus norvegicus [3], the inhibition was 6.68%.
